{"source": "patent US9205054B2", "about": "(LOSAN PHARMA GMBH, priority 2005, dated 2015)", "origin": "cited, not measured here", "key": {"[1]": {"conditions": "0.1 molar hydrochloric acid solution, after one hour"}}, "note": "Where two headings read alike, the source gives them in different places.", "data": [{"smiles": "CC(C)Cc1ccc(C(C)C(=O)O)cc1", "note": "(racemic) [Ibuprofen, 2-(4-isobutylphenyl)propionic acid]", "values": [{"measurement": "dissolved ibuprofen", "setting": "[1]", "result": 10, "unit": "%"}, {"measurement": "solubility", "setting": "pH 1-5", "result": "under 0.1 g/l"}, {"measurement": "solubility", "setting": "pH 7.2", "result": "about 20 g/l"}]}]}
